# According to patent US7423149B2, “Substituted n-aryl amidines as selective D1 dopamine receptor antagonists for the treatment of obesity and CNS disorders” (Schering Corporation, priority 2003, dated 2008):
# Target: T1, human Dopamine D1 receptor (Homo sapiens, UniProt P21728)
# T1 construct: expressed in transfected cells; host or cells: Ltk- cells (mouse fibroblasts), membrane preparation
# Test: radioligand binding competition assay, displacement of [3H]SCH 23390 from D1 receptor (Ltk-cells membranes);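 also: under 5 nM class also requires D2 to D1 selectivity above 500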
# Details: class combines Ki (D1) and, for A and B, D2:D1 selectivity (Ki D2 / Ki D1); read-out: D1 binding and D2:D1 Selectivity
# Source text: Biological Activity: Compounds from this disclosure have been biologically characterized by their ability to displace a known D1-like selective ligand, [3H]SCH 23390 from the human Dopamine D1 receptor, and a known D2-like selective ligand, [3H] Methylspiperone, from the human Dopamine D2 and D4 receptors.
# Affinity values (Ki) of compounds at human dopamine receptors were ascertained using radioligand binding competition assays. Cells expressing D1 (Ltk-cells), D2 (long variant, Ltk-cells), D4 (CHO cells) and D5 (GH4C1 cells) receptors were lysed in hypotonic buffer for membrane preparation. Membranes were incubated with various concentrations of test compound and 1 nM [3H] SCH 23390 (D1 and D5) and 0.2 nM [3H] Methylspiperone for (D2 and D4) assays. Non-specific binding was defined as binding in the presence of 10 micromolar of SCH 23390 for D1 and D5 assays and 10 micromolar butaclamol for D2 and D4 assays. Following incubation to equilibrium (1 hour at room temperature), bound radioligand was separated from free by rapid filtration. Bound radioactivity on the dried filters was quantified by liquid scintillation counting.
# Selectivity is determined by dividing Ki for D2, D4 or D5 receptors by Ki for D1 receptor.
# T1 sequence (P21728 whole entry): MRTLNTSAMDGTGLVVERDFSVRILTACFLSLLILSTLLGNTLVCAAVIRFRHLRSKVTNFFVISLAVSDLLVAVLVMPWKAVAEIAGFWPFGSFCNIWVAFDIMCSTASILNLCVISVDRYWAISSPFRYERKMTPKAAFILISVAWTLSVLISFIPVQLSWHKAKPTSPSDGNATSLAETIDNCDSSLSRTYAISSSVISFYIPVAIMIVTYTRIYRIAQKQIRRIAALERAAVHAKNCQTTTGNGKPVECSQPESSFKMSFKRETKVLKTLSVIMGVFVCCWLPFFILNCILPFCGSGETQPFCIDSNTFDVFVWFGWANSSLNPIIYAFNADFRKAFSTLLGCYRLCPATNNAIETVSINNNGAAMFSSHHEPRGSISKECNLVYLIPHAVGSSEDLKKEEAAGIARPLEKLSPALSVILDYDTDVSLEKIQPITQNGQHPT
row,Compound,Ki
1,COc1ccc(/C=C/C(=N)Nc2cccc(C(F)(F)F)c2)cc1 [Example 1],0.05 to 10 µM
2,N=C(/C=C/c1cc(C(F)(F)F)cc(C(F)(F)F)c1)Nc1ccc(Cl)cc1 [Example 2],0.05 to 10 µM
3,N=C(/C=C/c1ccc(Cl)c([N+](=O)[O-])c1)Nc1ccc(Cl)cc1 [Example 3],0.05 to 10 µM
4,N=C(/C=C/c1ccc(OC(F)(F)F)cc1)Nc1ccc(Cl)cc1 [Example 4],0.05 to 10 µM
5,N=C(/C=C/c1ccccc1I)Nc1ccc(Cl)cc1 [Example 5],0.05 to 10 µM
6,N=C(/C=C/c1ccc(CN2CCCCC2)cc1)Nc1ccc(Cl)cc1 [Example 6],0.05 to 10 µM
7,CC(C)(C)c1ccc(/C=C/C(=N)Nc2ccc(Cl)cc2)cc1 [Example 7],0.01 to 0.05 µM
8,N=C(/C=C/c1ccc(Cc2cccnc2)cc1)Nc1ccc(O)cc1 [Example 8],0.05 to 10 µM
9,COc1ccc(NC(=N)/C=C/c2ccc(Cc3cccnc3)cc2)cc1Cl [Example 9],0.05 to 10 µM
10,CC(C)c1ccc(/C=C/C(=N)Nc2ccc(Cl)cc2)cc1 [Example 10],0.01 to 0.05 µM
11,N=C(/C=C/c1cccc2ccccc12)Nc1ccc(Cl)cc1 [Example 12],0.05 to 10 µM
12,N=C(/C=C/c1ccc(Cl)cc1Cl)Nc1ccc(Cl)cc1 [Example 13],0.01 to 0.05 µM
13,N=C(/C=C/c1ccncc1)Nc1ccc(Cl)cc1 [Example 14],0.05 to 10 µM
14,N=C(/C=C/c1ccc(Cc2cccnc2)cc1)Nc1ccc2c(c1)CCC2 [Example 15],0.01 to 0.05 µM
15,N=C(/C=C/c1ccc(-c2ccccc2)cc1)Nc1ccc(Cl)cc1 [Example 16],0.01 to 0.05 µM
16,COc1ccc(/C=C/C(=N)Nc2cccc(C)c2)cc1 [Example 17],0.05 to 10 µM
17,COc1ccc(/C=C/C(=N)Nc2ccc(F)c(Cl)c2)cc1 [Example 18],0.05 to 10 µM
18,N=C(/C=C/c1ccc(Cc2ccccn2)cc1)Nc1ccc(Cl)cc1 [Example 19],0.05 to 10 µM
19,CC1CCCCN1c1ccc(/C=C/C(=N)Nc2ccc(Cl)cc2)c(Cl)c1 (stereo not drawn) [Example 20],< 0.01 µM
20,"N=C(/C=C/c1ccc(-c2ccc3[nH]ccc3c2)cc1)Nc1ccc(Cl)cc1 [Example 21, N-(4-chloro-phenyl)-3-[4-(1H -indol-5-yl)-phenyl]-acrylamidine]",< 0.01 µM
21,N=C(/C=C/c1ccc(Cc2cccnc2)cc1)Nc1ccc2c(c1)OCO2 [Example 22],0.05 to 10 µM

row,Compound,Ki
1,COc1ccc(/C=C/C(=N)Nc2ccc(Br)cc2)cc1 [Example 23],0.01 to 0.05 µM
2,N=C(/C=C/c1ccc(Cc2cccnc2)cc1)Nc1ccc(Br)cc1 [Example 24],0.01 to 0.05 µM
3,N=C(/C=C/c1ccc(-c2ccccn2)cc1)Nc1ccc(Cl)cc1 [Example 25],0.01 to 0.05 µM
4,COc1ccc2cc(C(=N)Nc3ccc(Cl)cc3)ccc2c1 [Example 26],0.05 to 10 µM
5,COc1cccc(OC)c1/C=C/C(=N)Nc1ccc(Cl)cc1 [Example 27],0.05 to 10 µM
6,Cc1ccc(/C=C/C(=N)Nc2ccc(Cl)cc2)cc1 [Example 28],0.05 to 10 µM
7,COc1ccc(/C=C/C(=N)Nc2ccc(Cl)cc2)c(Cl)c1OC [Example 29],0.01 to 0.05 µM
8,N#Cc1cccc(-c2ccc(/C=C/C(=N)Nc3ccc(Cl)cc3)cc2)c1 [Example 30],0.01 to 0.05 µM
9,Cc1ccc(NC(=N)/C=C/c2ccc(Cc3cccnc3)cc2)cc1 [Example 31],0.01 to 0.05 µM
10,CC1CCCCN1c1ccc(/C=C/C(=N)Nc2ccc(Cl)cc2)cc1 (stereo not drawn) [Example 32],< 0.01 µM
11,CN1CCN(c2ccc(/C=C/C(=N)Nc3ccc(Cl)cc3)c(Cl)c2)CC1 [Example 33],< 0.01 µM
12,C[C@H]1CNCCN1c1ccc(/C=C/C(=N)Nc2ccc(Cl)cc2)c(Cl)c1 [Example 34],< 0.005 µM
13,N=C(/C=C/c1ccc(Cc2ccncc2)cc1)Nc1ccc(Cl)cc1 [Example 35],0.01 to 0.05 µM
14,N=C(/C=C/c1ccc(N2CCN(Cc3ccccc3)CC2)cc1)Nc1ccc(Cl)cc1 [Example 36],0.01 to 0.05 µM
15,CN(C)c1ccc(/C=C/C(=N)Nc2ccc(Cl)cc2)cc1 [Example 37],0.01 to 0.05 µM
16,CCN(CC)c1ccc(/C=C/C(=N)Nc2ccc(Cl)cc2)cc1 [Example 38],0.01 to 0.05 µM
17,C[C@@H]1CNCCN1c1ccc(/C=C/C(=N)Nc2ccc(Cl)cc2)c(Cl)c1 [Example 39],< 0.005 µM
18,CCN(CC)c1ccc(/C=C/C(=N)Nc2ccc(Cl)cc2)c(Cl)c1 [Example 40],< 0.01 µM
19,N=C(/C=C/c1ccc(-c2cccc([N+](=O)[O-])c2)cc1)Nc1ccc(Cl)cc1 [Example 41],0.01 to 0.05 µM
20,N#Cc1ccc(-c2ccc(/C=C/C(=N)Nc3ccc(Cl)cc3)cc2)cc1 [Example 43],< 0.01 µM
21,N=C(/C=C/c1ccc(-c2ccc(C=O)cc2)cc1)Nc1ccc(Cl)cc1 [Example 44],< 0.01 µM

row,Compound,Ki
1,CC(CN1CCN(c2ccc(/C=C/C(=N)Nc3ccc(Cl)cc3)c(Cl)c2)CC1)c1ccccc1 (stereo not drawn) [Example 45],0.01 to 0.05 µM
2,COC(=O)C1CC1CN1CCN(c2ccc(/C=C/C(=N)Nc3ccc(Cl)cc3)c(Cl)c2)CC1 (stereo not drawn) [Example 46],0.01 to 0.05 µM
3,N=C(/C=C/c1ccc(N2CCN(Cc3cccs3)CC2)cc1Cl)Nc1ccc(Cl)cc1 [Example 47],0.01 to 0.05 µM
4,N=C(/C=C/c1ccc(Cc2cccnc2)cc1)Nc1ccc(Cl)cc1 [Example 48],0.01 to 0.05 µM
5,CC(=O)c1ccc(-c2ccc(/C=C/C(=N)Nc3ccc(Cl)cc3)cc2)cc1 [Example 49],0.01 to 0.05 µM
6,CN1c2ccccc2Sc2cc(/C=C/C(=N)Nc3ccc(Cl)cc3)ccc21 [Example 50],0.01 to 0.05 µM
7,COc1cc(N(C)C)ccc1/C=C/C(=N)Nc1ccc(Cl)cc1 [Example 51],0.01 to 0.05 µM
8,CN1CCN(Cc2ccc(-c3ccc(/C=C/C(=N)Nc4ccc(Cl)cc4)cc3)cc2)CC1 [Example 52],0.01 to 0.05 µM
9,N=C(/C=C/c1ccc(N2CCN(Cc3cccc(OC(F)(F)F)c3)CC2)cc1Cl)Nc1ccc(Cl)cc1 [Example 53],0.01 to 0.05 µM
10,COc1ccc(/C=C/C(=N)Nc2ccc(Cl)cc2)c(F)c1 [Example 54],0.01 to 0.05 µM
11,COc1ccc(/C=C/C(=N)Nc2cc(F)cc(F)c2)cc1 [Example 55],0.01 to 0.05 µM
12,CCC1CCC(N2CCN(c3ccc(/C=C/C(=N)Nc4ccc(Cl)cc4)c(Cl)c3)CC2)CC1 (stereo not drawn) [Example 56],0.01 to 0.05 µM
13,N=C(/C=C/c1ccc(Cc2c[nH]cn2)cc1)Nc1ccc(Cl)cc1 [Example 57],0.01 to 0.05 µM
14,N=C(/C=C/c1ccc(-c2cccc(F)c2)cc1)Nc1ccc(Cl)cc1 [Example 58],0.01 to 0.05 µM
15,C=Cc1ccc(-c2ccc(/C=C/C(=N)Nc3ccc(Cl)cc3)cc2)cc1 [Example 59],0.01 to 0.05 µM
16,CCC1CCCCN1c1ccc(/C=C/C(=N)Nc2ccc(Cl)cc2)cc1 (stereo not drawn) [Example 60],0.01 to 0.05 µM
17,N=C(Nc1ccc(Cl)cc1)c1ccc2cc(N3CCN(Cc4ccccc4)CC3)ccc2c1 [Example 61],0.01 to 0.05 µM
18,CCOc1ccc(CN2CCN(c3ccc(/C=C/C(=N)Nc4ccc(Cl)cc4)c(Cl)c3)CC2)cc1 [Example 62],0.01 to 0.05 µM
19,N=C(/C=C/c1ccc(-c2ccsc2)cc1)Nc1ccc(Cl)cc1 [Example 64],0.01 to 0.05 µM
20,COc1ccc(/C=C/C(=N)Nc2ccc(Cl)cc2)cc1Cl [Example 65],0.01 to 0.05 µM
21,N=C(Nc1ccc(Cl)cc1)c1ccc2cccc(O)c2n1 [Example 66],0.01 to 0.05 µM

row,Compound,Ki
1,N=C(/C=C/c1ccc(Cl)s1)Nc1ccc(Cl)cc1 [Example 67],0.01 to 0.05 µM
2,N=C(/C=C/c1ccc(-c2ccc(CN3CCNCC3)cc2)cc1)Nc1ccc(Cl)cc1 [Example 68],0.01 to 0.05 µM
3,COc1ccc(/C=C/C(=N)Nc2ccc(Cl)cc2)cc1OC [Example 69],0.01 to 0.05 µM
4,COc1ccc(/C=C/C(=N)Nc2ccc(Cl)cc2)cc1 [Example 70],0.01 to 0.05 µM
5,N=C(Nc1ccc(Cl)cc1)c1ccc2cc(N3CCNCC3)ccc2c1 [Example 71],0.01 to 0.05 µM
6,N=C(/C=C/c1ccc2c(c1)OCO2)Nc1ccc(Cl)cc1 [Example 72],0.01 to 0.05 µM
7,N=C(/C=C/c1ccccc1Cl)Nc1ccc(Cl)cc1 [Example 73],0.01 to 0.05 µM
8,N=C(/C=C/c1ccc(N2CCN(C3CCCC(C(F)(F)F)C3)CC2)cc1Cl)Nc1ccc(Cl)cc1 (stereo not drawn) [Example 74],0.01 to 0.05 µM
9,CC(C)(C)OC(=O)N1CCN(Cc2ccc(-c3ccc(/C=C/C(=N)Nc4ccc(Cl)cc4)cc3)cc2)CC1 [Example 75],0.05 to 10 µM
10,N=C(/C=C/c1ccccc1Br)Nc1ccc(Cl)cc1 [Example 76],0.05 to 10 µM
11,CC(C)N1CCN(c2ccc(/C=C/C(=N)Nc3ccc(Cl)cc3)c(Cl)c2)CC1 [Example 77],0.05 to 10 µM
12,N=C(/C=C/c1ccc2ccccc2c1)Nc1ccc(Cl)cc1 [Example 78],0.05 to 10 µM
13,N=C(Nc1ccc(Cl)cc1)c1ccc2nc(N3CCNCC3)ccc2c1 [Example 79],0.05 to 10 µM
14,N=C(/C=C/c1ccc(Cl)cc1)Nc1ccc(Cl)cc1 [Example 80],0.05 to 10 µM
15,COc1ccc(/C=C\C(=N)Nc2ccc(Cl)cc2)cc1 [Example 81],0.05 to 10 µM
16,COc1ccc(/C=C/C(=N)Nc2cccc([N+](=O)[O-])c2)cc1 [Example 82],0.05 to 10 µM
17,CCC(C)CN1CCN(c2ccc(/C=C/C(=N)Nc3ccc(Cl)cc3)c(Cl)c2)CC1 (stereo not drawn) [Example 83],0.05 to 10 µM
18,N=C(/C=C/c1ccc(N2CCCCC2)cc1)Nc1ccc(Cl)cc1 [Example 84],0.05 to 10 µM
19,COc1ccc(/C=C\C(=N)Nc2ccc(Cl)cc2)c(F)c1 [Example 85],0.05 to 10 µM
20,N=C(/C=C/c1ccc(N2CCOCC2)cc1)Nc1ccc(Cl)cc1 [Example 86],0.05 to 10 µM
21,N=C(/C=C/c1ccc(-c2ccc(CN3CCN(Cc4ccccc4)CC3)cc2)cc1)Nc1ccc(Cl)cc1 [Example 87],0.05 to 10 µM
